Here are results for four molecules from patent US11591323B2, “Muscarinic agonists as non-steroidal and non-opioid analgesics and methods of use thereof” (Barry University, priority 2019, dated 2023).

Broadly, the EC50 is the concentration at which the effect is half-maximal. A higher EC50 goes with lower potency in that assay.

One experiment concerns the target T1, M2 muscarinic receptor (Homo sapiens, UniProt P08172).
T1 sequence (P08172 1-466): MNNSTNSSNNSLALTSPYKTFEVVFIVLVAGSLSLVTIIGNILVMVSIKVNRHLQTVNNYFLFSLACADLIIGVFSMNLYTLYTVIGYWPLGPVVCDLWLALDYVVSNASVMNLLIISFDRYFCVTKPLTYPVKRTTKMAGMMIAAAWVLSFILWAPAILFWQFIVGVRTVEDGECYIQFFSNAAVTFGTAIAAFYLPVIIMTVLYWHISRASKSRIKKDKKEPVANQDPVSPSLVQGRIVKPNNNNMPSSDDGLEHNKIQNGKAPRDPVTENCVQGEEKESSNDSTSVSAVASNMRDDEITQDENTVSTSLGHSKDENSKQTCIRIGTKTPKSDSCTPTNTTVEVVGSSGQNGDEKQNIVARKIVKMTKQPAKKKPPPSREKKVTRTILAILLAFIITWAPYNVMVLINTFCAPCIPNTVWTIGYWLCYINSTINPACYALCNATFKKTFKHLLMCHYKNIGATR
In words: accumulation of IPX, M2 CHO cells (M2Gq). In kind it is cell-based. The arrangement: host or cells: CHO cells, stably transfected. The conditions noted are these: for RAi / E′MAX / τ / Δlog(τ/KA): M2Gq (↑IPX); for RAi: Table 8, relative to carbachol; for E′MAX / τ: Table 8; for Δlog(τ/KA): Table 8, to carbachol. The method, then:
(§1) To determine level of cAMP, cells in suspension were pre-incubated for 1 h with 0.4 μM [^3H]adenine, washed, and incubated for 10 min in the presence of isobutylmethylxanthine and 10 μM forskolin. […] Incubation was ended by addition of 0.2 ml of 2.5 M HCl to the samples. Samples were applied to alumina columns (1.5 g of alumina per column), washed with 2 ml ammonium acetate (pH=7.0) and eluted from columns with 4 ml ammonium acetate and measured by liquid scintillation spectrometry. […] The incubation was stopped by addition of 0.5 ml of chloroform methanol HCl mixture (2:1:0.1). After separation of water and organic phases, 0.6 ml of water phase was applied to Dowex columns (1.5 g of Dowex per column), washed by 20 ml of 60 mM ammonium formate/5 mM sodium borate buffer and eluted from columns with 4 ml of 1M ammonium formate/0.1 formic acid buffer and measured by liquid scintillation spectrometry.
(§2) Measurements of the production of cAMP and inositol phosphates: Levels of second messengers cAMP and inositol phosphates were determined in radiochemical chromatography assays as described previously. To determine level of cAMP, cells in suspension were pre-incubated for 1 h with 0.4 μM [^3H]adenine, washed, and incubated for 10 min in the presence of isobutylmethylxanthine and 10 μM forskolin. […] Incubation was ended by addition of 0.2 ml of 2.5 M HCl to the samples. Samples were applied to alumina columns (1.5 g of alumina per column), washed with 2 ml ammonium acetate (pH=7.0) and eluted from columns with 4 ml ammonium acetate and measured by liquid scintillation spectrometry. […] For this purpose, new CHO cell lines stably expressing promiscuous G15 G-protein and M2 or M4 receptor were generated by transfection with pCMV/hygro vector and hygromycin selection. To determine the rate of formation of inositol phosphates IPX, suspended cells were pre-incubated with 0.1 μM [^3H]myo-inositol for 60 min, washed, and incubated with 10 mM LiCl for 15 min. […] The incubation was stopped by addition of 0.5 ml of chloroform methanol HCl mixture (2:1:0.1). After separation of water and organic phases, 0.6 ml of water phase was applied to Dowex columns (1.5 g of Dowex per column), washed by 20 ml of 60 mM ammonium formate/5 mM sodium borate buffer and eluted from columns with 4 ml of 1M ammonium formate/0.1 formic acid buffer and measured by liquid scintillation spectrometry.
(§3) For bi-phasic response, curves were inhibitory and stimulatory phase were fitted separately. Operational Model of Functional Agonism
(§4) [formula] where y is functional response at concentration of tested compound x, EMAX is maximal response of the system, KA is equilibrium dissociation constant and nH is slope factor. Eq. 5 was fitted to data from functional experiments. Eq. 5 was fitted to data by the two-step procedure described earlier. […] In the second step, Eq. 5 with EMAX fixed to the value determined in the first step was fitted to individual experimental data sets. Relative Intrinsic Activity

In another experiment the target is T2, M5 muscarinic receptor (Homo sapiens, UniProt P08912).
T2 sequence (P08912 1-532): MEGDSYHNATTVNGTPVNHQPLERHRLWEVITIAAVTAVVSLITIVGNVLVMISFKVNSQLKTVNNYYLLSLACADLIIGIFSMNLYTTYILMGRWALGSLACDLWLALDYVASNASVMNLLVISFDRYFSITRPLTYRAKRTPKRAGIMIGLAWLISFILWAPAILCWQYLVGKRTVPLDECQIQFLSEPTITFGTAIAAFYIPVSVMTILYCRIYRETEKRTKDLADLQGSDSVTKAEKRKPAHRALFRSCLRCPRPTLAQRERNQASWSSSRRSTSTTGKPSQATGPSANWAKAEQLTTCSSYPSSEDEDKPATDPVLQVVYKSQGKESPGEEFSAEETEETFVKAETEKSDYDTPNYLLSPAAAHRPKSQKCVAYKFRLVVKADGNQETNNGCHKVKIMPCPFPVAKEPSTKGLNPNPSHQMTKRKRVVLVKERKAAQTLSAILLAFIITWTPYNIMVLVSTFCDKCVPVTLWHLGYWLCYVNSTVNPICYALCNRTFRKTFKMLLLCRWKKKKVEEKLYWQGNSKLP
In words: accumulation of IPX, M5 CHO cells transfected with G15 (M5Gq+G15). The experiment is classed as cell-based. On the set-up: expressed in transfected cells; host or cells: CHO cells. The conditions noted are these: for EC50 / E′MAX / τ: Table 8; for Kd: Table 8, read-out: pKA (converted); for RAi: Table 8, relative to carbachol; for Δlog(τ/KA): Table 8, to carbachol. The protocol:
as §1, §2, §3, §4

Consider `C1=CCN(Cc2cccs2)CC1.Cl` [Compound 6A, 1-[(thiophen-2-yl)methyl]-1,2,3,6-tetrahydropyridin-1-ium chloride], for which, at M2 muscarinic receptor, the RAi is recorded as 0. Further, on M5 muscarinic receptor, the EC50 is 1.58 µM, the “E′MAX” value worked out at 1.19 ± 0.04 fold over basal, the τ worked out at 0.009 ± 0.003 and the Kd was 1580 nM. In addition, on M5 muscarinic receptor, the RAi is 0.0025 ± 0.0008 and the “Δlog(τ/KA)” value worked out at 2.60 ± 0.82.

Molecule `C[N+]1(Cc2cccs2)CC=CCC1.[I-]` (stereo not drawn) [Compound 7A, 1-methyl-1-[(thiophen-2-yl)methyl]-1,2,3,6-tetrahydropyridin-1-ium iodide] came in with an RAi on M2 muscarinic receptor of 0. Besides, at M5 muscarinic receptor, it took 7.94 µM to reach a half-maximal effect (EC50), the “E′MAX” value is reported as 1.28 ± 0.05 fold over basal, the τ came out at 0.014 ± 0.003 and the Kd is 2000 nM. In addition, at M5 muscarinic receptor, the RAi came out at 0.0007 ± 0.0002 and the “Δlog(τ/KA)” value is recorded as 3.17 ± 0.88.

Consider `C[N+](C)(C)CCOC(N)=O` [carbachol, reference compound], for which, on M2 muscarinic receptor, the “E′MAX” value is listed as 1.91 ± 0.07 fold over basal, the τ turned out to be 0.2 ± 0.1 and the “Δlog(τ/KA)” value was 0. At M5 muscarinic receptor, the “E′MAX” value was found to be 17 ± 2 fold over basal, the τ is recorded as 4.0 ± 0.4 and the “Δlog(τ/KA)” value stood at 0.

On to `O=C1CCCN1CC#CCN1CCCC1` [oxotremorine, reference compound], for which, at M2 muscarinic receptor, it took 209 nM to reach a half-maximal effect (EC50), the Kd is 251 nM, the “E′MAX” value came to 1.60 ± 0.05 fold over basal and the τ is listed as 0.2 ± 0.1. Also, on M2 muscarinic receptor, the RAi amounted to 3.08 ± 0.28 and the “Δlog(τ/KA)” value was −0.49 ± 0.05. Also, on M5 muscarinic receptor, the “E′MAX” value is 16 ± 1 fold over basal, the τ stood at 2.6 ± 0.3, the RAi was determined as 4.12 ± 0.26 and the “Δlog(τ/KA)” value is recorded as −0.62 ± 0.07.
